Measurements published in patent publication US20260083126A1, “ANTIMICROBIAL COMPOSITIONS” (AHV International B.V., priority 2022, published 2026).
In brackets after ≈: the same amount, converted by molar mass. Several values for one entry are separate records, joined by “and”; a condition that tells them apart may be missing. Identical values can stand only once. Like-named read-outs stand apart in the source and are kept apart here.

Tests used:
[1] = tested on: Pseudomonas aeruginosa ATCC 27853 biofilm; assay: MBEC assay (48 h biofilm, CFU log reduction); type: cell-based; details: 20 h treatment, 0.125-1 mM tested
Method: (§1) For the MBEC assay (method 1.3) the solutions need to be diluted to a final concentration of 2 mM in 0.9% saline solution and then further diluted to 1 mM, 0.5 mM, 0.25 mM and 0.125 mM in saline. Those dilutions were added as treatment to the 96 well plates with the grown biofilm (see method 3) (0.5 mL needed for one strain). The dilution must stay transparent.
(§2) Frozen aliquots of Staphylococcus epidermis ATCC 35984 and Pseudomonas aeruginosa ATCC 27853 were used to inoculate 20 mL of Tryptic Soy Broth (TSB) in a 100 mL Erlenmeyer flask at 37° C. and 150 rpm and incubated overnight (Infors). The OD600 of the overnight culture was measured with a spectrophotometer (Evolution™ 201/220 UV-Visible Spectrophotometer, Thermo Fisher Scientific) and diluted to an ( ) 600 of 0.2, which resembles 10^8 CFU/mL. The cell suspension of OD600=0.2 was seeded into a U-bottom-shaped 96 well plates by pipetting 100 μL per well in column 1-11, column 12 was filled with 100 μL medium as sterility control. The 96 well plates were sealed with adhesive polyethylene film for sealing microplates and incubated for 48 h at 37° C. at static conditions. After the biofilm growth phase, 100 μL of treatment solutions (method 1) were added to the vials resulting in treatment concentrations of 1 mM, 0.5 mM, 0.25 mM and 0.125 mM and with the respective concentration of Tween 80 and DMSO each at 0.63%, 0.32%, 0.16% and 0.08%. The same concentration was applied to four different wells of the same bacterial strain, resulting in four replicates for each concentration and strain. The treatment was incubated for 20 h at 37° C. at static conditions. After the treatment the supernatant was carefully removed and the well with the biofilm washed carefully for one time with 200 μL 0.9% saline solution. 200 μL saline solution was added and the biofilm was resuspended thoroughly. When fully homogenized then 20 μl, was used for the first dilution in 180 μL 0.9% saline solution, which was prepared in a second plate. This dilution was continued until dilution step 10E-5 and 100 μL of the 10E-4 and 10E-5 dilution plated on a TSA plate. The TSA plates were incubated at 37° C. for 24 h. The colonies on the plates were enumerated, the colony forming units per ml, of the dispensed biofilm and averages thereof and the log reduction in comparison with the untreated sample from the same wells plate calculated. Reduction of colony forming units goes hand in hand with the thickness of the biofilm and thus with the number bacteria that are present in the biofilm. Therefore, a significant reduction of colony forming units in the biofilm was defined at the value of log reduction >1 or more. This assay was repeated two times in two independent experiments)

[2] = tested on: Pseudomonas aeruginosa ATCC 27853; assay: MIC assay (growth inhibition of planktonic microorganisms); type: cell-based; details: for P. aeruginosa MIC50 / MIC50: reduction of final OD600 by 50%; for MIC50 / MIC90: Pseudomonas aeruginosa; for MIC50: ATCC27853, 24 h, read-out: P. aeruginosa MIC50; for MIC90: ATCC27853
Method: (§3) The exact weighed amount was noted and the volume of solvent to reach a 80 mM dilution calculated. Half of the volume was added first, by adding Tween 80 and let stand for 5 minutes. In a second step, the other half of the volume DMSO was added and resuspended to help the dilution process. The closed tube was inverted 5-10 times and then vortexed very thoroughly for at least 30 seconds. If after this procedure crystals were still visible, the tube was placed in a shaker at 37° C. at 150 rpm for at least 30 minutes (it is indicated if the dissolution period was longer than 2 h). […] In case of Bis(4-Chlorophenyl) thiosulfonate, a lower concentrated stock solution of 2 mM needed to be prepared. For that, the required amount of compound was weighed in and 2% v/v Tween80 and 2% v/v DMSO of the end volume of the stock solution was added to the substance. This mix was heated in a water bath set to 40° C. and occasionally shaken. When the whole amount of the substance reached dissolution, the volume was filled up with growth medium until the end volume. This 2 mM stock solution of Bis(4-Chlorophenyl) thiosulfonate was used in the MIC plate and diluted two-fold, resulting in a testing range of Bis(4-Chlorophenyl) thiosulfonate from 1 mM to 0.002 mM.
(§4) The microorganisms as indicated in Table 4 were used to inoculate a tryptic soy agar (TSA) plate and incubated overnight at 37° C. After incubation 3-5 well-isolated colonies with the same morphology were selected from the TSA plate and resuspended in 2 mL 0.9% saline solution with 3-6 glass beads and vortexed. The optical density at 600 nm (OD600) of the bacterial suspension was measured with a spectrophotometer (Evolution™ 201/220 UV-Visible Spectrophotometer, Thermo Fisher Scientific) and diluted to an OD600 of 0.0008, which resembles 10^6 CFU/mL.
(§5) The MIC assay was performed in a flat-bottom 96-microtiter plate. 50 μL of MHB-II was added into columns 2-11, and 100 μL to column 12 for sterility control. 100 μL of the 8 mM test compound solution (method 1) was added to column 1. A two-fold dilution series of the solution in MHB-II was achieved by resuspending 50 μL of the 8 mM solution from column 1 to column 2. This step was repeated until column 10. The respective concentration of Tween 80 and DMSO in column 1 was 2.5%, which is two-fold diluted throughout the plate. 50 μL of the bacterial suspension was added to column 1-11. The microtiter plates were sealed with adhesive polyethylene film for sealing microplates (Diversified Biotech) and incubated for 24 h at 37° C. After incubation the OD was measured at 600 nm with the Varioskan (Thermo Fisher Scientific). The minimal concentration which causes reduction of final OD600 of the bacterial culture by 50% (MIC50) and by 90% (MIC90) was calculated after normalization of the obtained OD values to the growth control in column 11. This assay was repeated three times in three independent experiments.
Hereafter, the stock solutions of the compounds were used in three repetitions in a minimal inhibitory concentration (MIC) assay at a 2-fold dilution range with various bacteria from the gram-positive and gram-negative group and a yeast, Candida albicans. The concentrations that show only less than 10% growth after 24 h were considered the MIC90-values, whereas the concentrations that show 50% growth after 24 h when compared to the bacterial growth control were considered the MIC50-values. Escherichia coli and Staphylococcus aureus were used as representatives for a gram-negative bacteria and gram-positive bacteria, respectively. Furthermore, the yeast C. albicans was also tested.
In an Eppendorf tube between 10-20 mg of the test compound was weighed. Hereafter, the required amount of Tween 80 was added, followed by the amount DMSO. After vigorous shaking, the dissolved and transparent dilutions were diluted 10 times with Mueller Hinton Broth (MHB) for the MIC assay. […]

[3] = tested on: Staphylococcus epidermidis ATCC 35984; assay: as above; type: cell-based; details: 24 h at 37° C., MHB-II; for S. epidermidis MIC50 / MIC50: reduction of final OD600 by 50%; for S. epidermidis MIC90 / MIC90: reduction of final OD600 by 90%; for MIC50 / MIC90: Staphylococcus epidermidis, ATCC35984; for MIC50: read-out: S. epidermidis MIC50; for MIC90: read-out: S. epidermidis MIC90
Method: as §3, §4, §5

[4] = tested on: Staphylococcus epidermis ATCC 35984 biofilm; assay: MBEC assay (48 h biofilm, CFU log reduction); type: cell-based, Staphylococcus epidermidis; details: 20 h treatment, 0.125-1 mM tested
Method: as §1, §2

[5] = reduction of final OD600 by 90%, 24 h at 37° C., MHB-II
[6] = reduction of final OD600 by 90%, 24 h at 37° C., MHB-II, read-out: P. aeruginosa MIC90

SMILES | P. aeruginosa MBEC mM with log reduction ≥1 [1] [mM] | P. aeruginosa MIC50 ([2]; 24 h at 37° C., MHB-II) | P. aeruginosa MIC90 [2, 5] | S. epidermidis MIC50 [3] | S. epidermidis MIC90 [3] | S. epidermidis MBEC mM with log reduction ≥1 [4] [mM] | MIC50 ([2]; 24 h at 37° C., MHB-II) [µM] | MIC90 ([2]; Example 2b, FIG. 1, no MIC90 detected in the tested range, read-out: Average MIC90 P. aeruginosa (Pa)) [µM] | MIC90 [2, 6] [µM] | MIC50 [3] [µM] | MIC90 [3] [µM]
O=S(=O)(Sc1ccc(Cl)cc1)c1ccc(Cl)cc1 [Bis (4-chlorophenyl) thiosulfonate, Bis(4-chlorophenyl) thiosulfonate] | >1 | 0.25 mM | 2 mM and 2.00 mM | 0.03 mM | 0.06 mM | >1 |  |  |  |  | 
O=S(=O)(Sc1ccc(F)cc1)c1ccc(F)cc1 [Bis (4-fluorophenyl) thiosulfonate, Bis(4-fluorophenyl) thiosulfonate] | >1 | 2 mM and 2.00 mM | 2 mM and 2.00 mM | 0.25 mM | 2 mM and 2.00 mM | >1 |  |  |  |  | 
Fc1ccc(SSc2ccc(F)cc2)cc1 [Bis (4-fluorophenyl) disulfide, Bis(4-fluorophenyl) disulfide] | >1 | 0.13 mM |  |  |  | >1 | 125 (≈ 31.8 µg/mL) | > 4000 | 250 (≈ 63.6 µg/mL) | 60 (≈ 15.3 µg/mL) | 60 (≈ 15.3 µg/mL)
CCCSSCCC [Di-n-propyl disulfide, reference compound] | >4 |  |  |  |  | >1 | > 4000 |  | > 4000 | > 4000 | > 4000
Clc1ccc(SSc2ccc(Cl)cc2)cc1 [Bis (4-chlorophenyl) disulfide, Bis(4-chlorophenyl) disulfide] | >1 |  |  |  |  | >1 | 20 (≈ 5.74 µg/mL) |  | 30 (≈ 8.62 µg/mL) | 10 (≈ 2.87 µg/mL) | 30 (≈ 8.62 µg/mL)
[O-][S+](Sc1ccc(F)cc1)c1ccc(F)cc1 (centres unmarked) [Bis (4-fluorophenyl) thiosulfinate, Bis(4-fluorophenyl) thiosulfinate] | >1 | 1 mM and 1.00 mM | 4 mM and 4.00 mM | 0.125 mM and 0.13 mM | 0.25 mM | >1 |  |  |  |  | 
CC(C)SS(=O)(=O)C(C)C [Di-isopropyl thiosulfonate] | >1 | 2 mM | 2 mM | 2 mM | 2 mM | >1 |  |  |  |  | 
CCCSS(=O)(=O)CCC [Di-n-propyl thiosulfonate, reference compound] | 1 | 0.25 mM | 0.25 mM | 0.25 mM | 0.25 mM | 0.25 |  |  |  |  | 
